ChEMBL document CHEMBL3885861, “Open TG-GATES”

Species: Rattus norvegicus
Test: Open TG-GATES - Regimen: Daily Repeat
Type: toxicity, organism-based, Sprague-Dawley
Design: regimen Daily Repeat, gender Male, age 6 weeks
Settings: in vivo, po, 0 mg/kg, […], route gavage, dose level Control; for KIDNEY_L / KIDNEY_R / KIDNEY_TOTAL: tissue Kidney; for LIVER: tissue Liver; for A/G / ALP / ALT / AST / BUN / CRE / Ca / Cl / DBIL / GLC / IP / K / LDH / Na / PL / RALB / TBIL / TC / TG / TP / gamma-GTP: tissue Plasma

How did the Lym (tissue Blood, time 28 day) turn out when `CC(C)C(=O)Nc1ccc([N+](=O)[O-])c(C(F)(F)F)c1` [FLUTAMIDE] was run?
The Lym was 82.8%.

And the MCH (tissue Blood, time 28 day)?
Its MCH is 19.9 pg.

And the MCHC (tissue Blood, time 28 day)?
The MCHC was 35%.

What about the MCV (tissue Blood, time 28 day) of the same molecule?
The MCV was 56.8 fL.

And the Mono (tissue Blood, time 28 day)?
Its Mono is 2.2%.

What about the Neu (tissue Blood, time 28 day) of the same molecule?
The Neu was 13.6%.

What about the PT (tissue Blood, time 28 day) of the same molecule?
Its PT is 12.2 s.

What about the Plat (tissue Blood, time 28 day) of the same molecule?
Its Plat is 107.9 x10_4/uL.

And the RBC (tissue Blood, time 28 day)?
The RBC was 765.6 x10_4/ul.

And the Ret (tissue Blood, time 28 day)?
The Ret was 2.3%.

And the WBC (tissue Blood, time 28 day)?
The WBC was 122 x10_2/uL.

And the KIDNEY_L (time 7 day)?
Its KIDNEY_L is 1.1 g.

And the KIDNEY_R (time 7 day)?
The KIDNEY_R was 1.1 g.

What about the KIDNEY_TOTAL (time 7 day) of the same molecule?
The KIDNEY_TOTAL was 2.2 g.

What about the KIDNEY_L (time 14 day) of the same molecule?
The KIDNEY_L was 1.2 g.

What about the KIDNEY_R (time 14 day) of the same molecule?
The KIDNEY_R was 1.2 g.

What about the KIDNEY_TOTAL (time 14 day) of the same molecule?
Its KIDNEY_TOTAL is 2.5 g.

And the KIDNEY_L (time 28 day)?
The KIDNEY_L was 1.3 g.

What about the KIDNEY_R (time 28 day) of the same molecule?
The KIDNEY_R was 1.3 g.

And the KIDNEY_TOTAL (time 28 day)?
Its KIDNEY_TOTAL is 2.7 g.

And the LIVER (time 7 day)?
Its LIVER is 11.7 g.

What about the LIVER (time 14 day) of the same molecule?
The LIVER was 13.4 g.

What about the LIVER (time 28 day) of the same molecule?
The LIVER was 15 g.

And the A/G (time 7 day)?
The A/G was 1.6.

What about the ALP (time 7 day) of the same molecule?
Its ALP is 743.8 IU/L.

And the ALT (time 7 day)?
Its ALT is 35.2 IU/L.

What about the AST (time 7 day) of the same molecule?
Its AST is 61.6 IU/L.

And the BUN (time 7 day)?
Its BUN is 15.6 mg/dL.

And the CRE (time 7 day)?
Its CRE is 0.4 mg/dL.

What about the Ca (time 7 day) of the same molecule?
Its Ca is 10.7 mg/dL.

And the Cl (time 7 day)?
The Cl was 103.4 meq/L.

And the DBIL (time 7 day)?
Its DBIL is 0.09 mg/dL.

What about the GLC (time 7 day) of the same molecule?
The GLC was 214.8 mg/dL.

And the IP (time 7 day)?
Its IP is 6.8 mg/dL.

And the K (time 7 day)?
The K was 3.7 meq/L.

What about the LDH (time 7 day) of the same molecule?
The LDH was 167.2 IU/L.

What about the Na (time 7 day) of the same molecule?
Its Na is 141 meq/L.

And the PL (time 7 day)?
Its PL is 140.4 mg/dL.

And the RALB (time 7 day)?
Its RALB is 3.6 g/dL.

And the TBIL (time 7 day)?
Its TBIL is 0.2 mg/dL.

And the TC (time 7 day)?
Its TC is 72.6 mg/dL.

And the TG (time 7 day)?
The TG was 82.6 mg/dL.

What about the TP (time 7 day) of the same molecule?
Its TP is 5.8 g/dL.

What about the gamma-GTP (time 7 day) of the same molecule?
Its gamma-GTP is 1.2 IU/L.

And the A/G (time 14 day)?
Its A/G is 1.5.

And the ALP (time 14 day)?
Its ALP is 842.2 IU/L.

What about the ALT (time 14 day) of the same molecule?
Its ALT is 35 IU/L.

What about the AST (time 14 day) of the same molecule?
Its AST is 61.8 IU/L.

And the BUN (time 14 day)?
Its BUN is 14.4 mg/dL.

What about the CRE (time 14 day) of the same molecule?
Its CRE is 0.4 mg/dL.

And the Ca (time 14 day)?
Its Ca is 10.6 mg/dL.

And the Cl (time 14 day)?
The Cl was 103.2 meq/L.

And the DBIL (time 14 day)?
The DBIL was 0.096 mg/dL.

What about the GLC (time 14 day) of the same molecule?
The GLC was 202.2 mg/dL.

And the IP (time 14 day)?
The IP was 6.8 mg/dL.

What about the K (time 14 day) of the same molecule?
The K was 3.8 meq/L.

What about the LDH (time 14 day) of the same molecule?
Its LDH is 150 IU/L.

What about the Na (time 14 day) of the same molecule?
Its Na is 141.2 meq/L.

What about the PL (time 14 day) of the same molecule?
The PL was 133.4 mg/dL.

And the RALB (time 14 day)?
Its RALB is 3.5 g/dL.

And the TBIL (time 14 day)?
The TBIL was 0.2 mg/dL.

What about the TC (time 14 day) of the same molecule?
The TC was 67 mg/dL.

What about the TG (time 14 day) of the same molecule?
The TG was 100.4 mg/dL.

And the TP (time 14 day)?
The TP was 5.8 g/dL.

And the gamma-GTP (time 14 day)?
Its gamma-GTP is 0.8 IU/L.

And the A/G (time 28 day)?
Its A/G is 1.4.

And the ALP (time 28 day)?
The ALP was 578 IU/L.

And the ALT (time 28 day)?
The ALT was 32 IU/L.

And the AST (time 28 day)?
Its AST is 50 IU/L.

What about the BUN (time 28 day) of the same molecule?
Its BUN is 15.8 mg/dL.

And the CRE (time 28 day)?
The CRE was 0.5 mg/dL.

What about the Ca (time 28 day) of the same molecule?
The Ca was 10.3 mg/dL.

What about the Cl (time 28 day) of the same molecule?
Its Cl is 104.6 meq/L.

What about the DBIL (time 28 day) of the same molecule?
The DBIL was 0.072 mg/dL.

And the GLC (time 28 day)?
Its GLC is 226.2 mg/dL.

What about the IP (time 28 day) of the same molecule?
The IP was 7 mg/dL.

What about the K (time 28 day) of the same molecule?
The K was 3.8 meq/L.

And the LDH (time 28 day)?
Its LDH is 121.6 IU/L.

And the Na (time 28 day)?
The Na was 140.8 meq/L.

What about the PL (time 28 day) of the same molecule?
The PL was 130.2 mg/dL.

What about the RALB (time 28 day) of the same molecule?
Its RALB is 3.5 g/dL.

What about the TBIL (time 28 day) of the same molecule?
Its TBIL is 0.1 mg/dL.

And the TC (time 28 day)?
Its TC is 70.4 mg/dL.

What about the TG (time 28 day) of the same molecule?
The TG was 60.8 mg/dL.

And the TP (time 28 day)?
Its TP is 6 g/dL.

What about the gamma-GTP (time 28 day) of the same molecule?
Its gamma-GTP is 0.8 IU/L.
